Measurements from US7985755B2, “2,4-diaminoquinazolines for spinal muscular atrophy” (Families of Spinal Muscular Atrophy, priority 2006, dated 2011).
Structures can show the parent of a compound that is named as a salt.

Test system: SMN2 promoter
Test: SMN2 promoter assay in NSC-34 cells (β-lactamase reporter)
Type: cell-based, mouse
Settings: Mus musculus, Table 1, SMN2 promoter driving β-lactamase, 12 point dose curve, read-out: Promoter Assay EC50
From the text: All compounds were screened using an in vitro based SMN2 promoter assay. We used NSC-34 cells, a hybrid cell line between mouse spinal cord cells and mouse neuroblastoma cells. NSC-34 cells harbor an expression plasmid containing a 3.4 kb promoter fragment of the SMN2 gene driving β-lactamase expression.
[…] […] CCF2-AM diffuses across the plasma membrane and is converted into an active β-lactamase substrate by cytoplasmic esterase. […] The fold induction is proportional to the extent of β-lactamase produced and in turn proportional to SMN2 promoter activation for a given compound relative to vehicle (DMSO) control. […] These values are used to rank activities of the compounds and derive structure activity relationship.

EC50 [nM]	SMILES
< 1000	Nc1nc(N)c2c(OCC3CCN(C(=O)c4ccccc4F)CC3)cccc2n1 [Example-013, [4-(2,4-Diaminoquinazolin-5-yloxymethyl)piperidin-1-yl](2-fluorophenyl)methanone]
< 1000	Nc1nc(N)c2c(OCC3CCN(C(=O)c4ccc5ccccc5c4)CC3)cccc2n1 [Example-018, [4-(2,4-Diaminoquinazolin-5-yloxymethyl)piperidin-1-yl]naphthalen-2-yl-methanone]
< 1000	Cc1ccccc1C(=O)N1CCC(COc2cccc3nc(N)nc(N)c23)CC1 [Example-019, [4-(2,4-Diaminoquinazolin-5-yloxymethyl)piperidin-1-yl]-o-tolylmethanone]
< 1000	Cc1cccc(C(=O)N2CCC(COc3cccc4nc(N)nc(N)c34)CC2)c1 [Example-020, [4-(2,4-Diaminoquinazolin-5-yloxymethyl)piperidin-1-yl]-m-tolylmethanone]
< 1000	Cc1ccc(C(=O)N2CCC(COc3cccc4nc(N)nc(N)c34)CC2)cc1 [Example-021, [4-(2,4-Diaminoquinazolin-5-yloxymethyl)piperidin-1-yl]-p-tolylmethanone]
< 1000	Nc1nc(N)c2c(OCC3CCN(C(=O)c4ccc(F)cc4F)CC3)cccc2n1 [Example-022, [4-(2,4-Diaminoquinazolin-5-yloxymethyl)piperidin-1-yl]-(2,4-difluorophenyl)methanone]
< 1000	Nc1nc(N)c2c(OCC3CCN(C(=O)c4ccc(F)c(F)c4)CC3)cccc2n1 [Example-023, [4-(2,4-Diaminoquinazolin-5-yloxymethyl)piperidin-1-yl]-(3,4-difluorophenyl)methanone]

The next lines start with the compound.

SMILES	EC50 [nM]
Nc1nc(N)c2c(OCC3CCN(Cc4ccc(Cl)cc4)CC3)cccc2n1 [Example-004, 5-[1-(4-Chlorobenzyl)piperidin-4-ylmethoxy]quinazoline-2,4-diamine hydrochloride]	< 1000
Nc1nc(N)c2c(OCC3CCN(Cc4ccc(F)c(F)c4)CC3)cccc2n1 [Example-011, 5-[1-(3,4-Difluorobenzyl)piperidin-4-ylmethoxy]quinazoline-2,4-diamine]	< 1000
Nc1nc(N)c2c(OCC3(S(=O)(=O)c4cccc(Cl)c4)CCNCC3)cccc2n1 [Example-026, 5-[4-(3-Chlorobenzenesulfonyl)piperidin-4-ylmethoxy]quinazoline-2,4-diamine]	< 1000
Nc1nc(N)c2c(OCC3(S(=O)(=O)c4ccccc4Cl)CCNCC3)cccc2n1 [Example-027, 5-[4-(2-Chlorobenzenesulfonyl)piperidin-4-ylmethoxy]quinazoline-2,4-diamine]	< 1000
Cc1cccc(S(=O)(=O)N2CCC(COc3cccc4nc(N)nc(N)c34)CC2)c1 [Example-032, 5-[1-(Toluene-3-sulfonyl)piperidin-4-ylmethoxy]quinazoline-2,4-diamine]	< 1000
Nc1nc(N)c2c(OCC3(S(=O)(=O)c4ccc(F)c(F)c4)CCNCC3)cccc2n1 [Example-035, 5-[4-(3,4-Difluorobenzenesulfonyl)-piperidin-4-ylmethoxy]quinazoline-2,4-diamine]	< 1000

Same assay, conditions: Mus musculus, Table 4, SMN2 promoter driving β-lactamase, read-out: Promoter Assay EC50 for 2391.003C(P)

SMILES	EC50 [nM]
CC(C)(C)OC(=O)N1CCN(c2cccc3nc(N)nc(N)c23)CC1 [Examplc-219, 4-(2,4-Diaminoquinazolin-5-yl)piperazine-1-carboxylic acid tert-butyl ester]	1000 to 5000

Same assay, conditions: Mus musculus, Table 6, SMN2 promoter driving β-lactamase, read-out: Promoter Assay EC50

SMILES	EC50 [nM]
Nc1nc(N)c2c(OCC3CC[N+]([O-])(Cc4ccccc4F)CC3)cccc2n1 (centres unmarked) [Examplc-221]	1000 to 5000

Same assay, conditions: Table 1, SMN2 promoter driving β-lactamase, 12 point dose curve, read-out: Promoter Assay EC50

EC50 [nM]	SMILES
< 1000	CC(C)(C)OC(=O)N1CCC(COc2cccc3nc(N)nc(N)c23)CC1 [Example-037]
< 1000	Nc1nc(N)c2c(OCC3CCN(C(=O)c4ccc(I)cc4)CC3)cccc2n1 [Example-040]
< 1000	Nc1nc(N)c2c(OCC3CCN(C(=O)c4ccccc4I)CC3)cccc2n1 [Example-041]
1000 to 5000	COc1ccc(CC(=O)N2CCC(COc3cccc4nc(N)nc(N)c34)CC2)cc1 [Example-045]
< 1000	Nc1nc(N)c2c(OCC3CCN(C(=O)c4cccc(F)c4)CC3)cccc2n1 [Example-046]
< 1000	CC(C)(C)C(=O)N1CCC(COc2cccc3nc(N)nc(N)c23)CC1 [Example-048]
< 1000	CC1CCC(C(=O)N2CCC(COc3cccc4nc(N)nc(N)c34)CC2)CC1 (centres unmarked) [Example-049]
< 1000	Nc1nc(N)c2c(OCC3CCN(C(=O)c4ccc(Cl)nc4)CC3)cccc2n1 [Example-051]
< 1000	Nc1nc(N)c2c(OCC3CCN(C(=O)c4cc(F)ccc4F)CC3)cccc2n1 [Example-052]
< 1000	Nc1nc(N)c2c(OCC3CCN(C(=O)c4cc(Cl)cc(Cl)c4)CC3)cccc2n1 [Example-054]
< 1000	Nc1nc(N)c2c(OCC3CCN(C(=O)c4cccs4)CC3)cccc2n1 [Example-055]
< 1000	COc1ccc(C(=O)N2CCC(COc3cccc4nc(N)nc(N)c34)CC2)cc1 [Example-056]
< 1000	Nc1nc(N)c2c(OCC3CCN(C(=O)c4ccco4)CC3)cccc2n1 [Example-057]
< 1000	Cc1cc(C(=O)N2CCC(COc3cccc4nc(N)nc(N)c34)CC2)no1 [Example-059]
< 1000	Nc1nc(N)c2c(OCC3CCN(C(=O)c4ccc(Cl)cc4Cl)CC3)cccc2n1 [Example-060]
< 1000	Nc1nc(N)c2c(OCC3CCN(C(=O)c4ccccc4OC(F)(F)F)CC3)cccc2n1 [Example-061]
< 1000	Nc1nc(N)c2c(OCC3CCN(C(=O)c4ccc(F)cc4)CC3)cccc2n1 [Example-062]
< 1000	Nc1nc(N)c2c(OCC3CCN(C(=O)c4ccc(OC(F)(F)F)cc4)CC3)cccc2n1 [Example-063]
< 1000	CCc1ccc(C(=O)N2CCC(COc3cccc4nc(N)nc(N)c34)CC2)cc1 [Example-064]
< 1000	Nc1nc(N)c2c(OCC3CCN(C(=O)CSc4ccccc4)CC3)cccc2n1 [Example-070]
< 1000	Nc1nc(N)c2c(OCC3CCN(C(=O)c4ccc(C(F)(F)F)nc4)CC3)cccc2n1 [Example-071]
< 1000	CS(=O)(=O)N1CCC(COc2cccc3nc(N)nc(N)c23)CC1 [Example-072]
< 1000	Nc1nc(N)c2c(OCC3CCN(S(=O)(=O)c4ccc(Cl)s4)CC3)cccc2n1 [Example-074]
< 1000	Nc1nc(N)c2c(OCC3CCN(S(=O)(=O)c4cccs4)CC3)cccc2n1 [Example-075]
< 1000	Cc1noc(C)c1S(=O)(=O)N1CCC(COc2cccc3nc(N)nc(N)c23)CC1 [Example-076]
< 1000	Cc1c(Cl)cccc1S(=O)(=O)N1CCC(COc2cccc3nc(N)nc(N)c23)CC1 [Example-081]
< 1000	CC(=O)Nc1ccc(S(=O)(=O)N2CCC(COc3cccc4nc(N)nc(N)c34)CC2)cc1 [Example-090]
< 1000	Cc1noc(C)c1CN1CCC(COc2cccc3nc(N)nc(N)c23)CC1 [Example-091]

Continued, compound first:

SMILES	EC50 [nM]
Nc1nc(N)c2c(OCC3CCN(Cc4cccc5ccccc45)CC3)cccc2n1 [Example-005]	< 1000
Nc1nc(N)c2c(OCC3CCN(S(=O)(=O)c4ccc(Cl)cc4)CC3)cccc2n1 [Example-028]	< 1000
Nc1nc(N)c2c(OCC3CCN(S(=O)(=O)c4cccc5ccccc45)CC3)cccc2n1 [Example-029]	< 1000
Nc1nc(N)c2c(OCC3CCN(S(=O)(=O)c4ccc5ccccc5c4)CC3)cccc2n1 [Example-030]	< 1000
Cc1ccccc1S(=O)(=O)N1CCC(COc2cccc3nc(N)nc(N)c23)CC1 [Example-031]	< 1000
Cc1ccc(S(=O)(=O)N2CCC(COc3cccc4nc(N)nc(N)c34)CC2)cc1 [Example-033]	< 1000
Nc1nc(N)c2c(OCC3CCN(Cc4ccc(I)cc4)CC3)cccc2n1 [Example-044]	< 1000
CS(=O)(=O)c1ccc(CN2CCC(COc3cccc4nc(N)nc(N)c34)CC2)cc1 [Example-047]	< 1000
CC(C)(C)c1ccc(S(=O)(=O)N2CCC(COc3cccc4nc(N)nc(N)c34)CC2)cc1 [Example-073]	< 1000
Nc1nc(N)c2c(OCC3CCN(S(=O)(=O)c4cccc(F)c4)CC3)cccc2n1 [Example-077]	< 1000
Nc1nc(N)c2c(OCC3CCN(S(=O)(=O)c4cccc(Cl)c4Cl)CC3)cccc2n1 [Example-078]	< 1000
Cc1ccc(F)cc1S(=O)(=O)N1CCC(COc2cccc3nc(N)nc(N)c23)CC1 [Example-079]	< 1000
COc1ccc(Cl)cc1S(=O)(=O)N1CCC(COc2cccc3nc(N)nc(N)c23)CC1 [Example-080]	< 1000
Nc1nc(N)c2c(OCC3CCN(S(=O)(=O)c4ccc(C(F)(F)F)cc4)CC3)cccc2n1 [Example-082]	< 1000
COc1ccc(Br)cc1S(=O)(=O)N1CCC(COc2cccc3nc(N)nc(N)c23)CC1 [Example-083]	< 1000
Nc1nc(N)c2c(OCC3CCN(S(=O)(=O)c4ccc(Cl)cc4Cl)CC3)cccc2n1 [Example-084]	< 1000
Nc1nc(N)c2c(OCC3CCN(S(=O)(=O)c4c(Cl)cccc4Cl)CC3)cccc2n1 [Example-085]	< 1000
CS(=O)(=O)c1ccc(S(=O)(=O)N2CCC(COc3cccc4nc(N)nc(N)c34)CC2)cc1 [Example-086]	< 1000
Nc1nc(N)c2c(OCC3CCN(S(=O)(=O)c4ccccc4C(F)(F)F)CC3)cccc2n1 [Example-087]	< 1000
Nc1nc(N)c2c(OCC3CCN(S(=O)(=O)c4ccc(Cl)c(Cl)c4)CC3)cccc2n1 [Example-088]	< 1000
CC(C)c1ccc(S(=O)(=O)N2CCC(COc3cccc4nc(N)nc(N)c34)CC2)cc1 [Example-089]	< 1000
Nc1nc(N)c2c(OCC3CCN(Cc4cc(Cl)nc(Cl)c4)CC3)cccc2n1 [Example-093]	< 1000
